# Experimental data as given in US9802899B2, “Heterocyclic compounds as pesticides” (BAYER CROPSCIENCE AG, priority 2012, dated 2017).
# Experiment: Determination of the log P values by HPLC (formic acid method)
# Type: physicochemical
# Details: reversed-phase HPLC column (C 18), reversed-phase column (C 18), acidic range (pH 3.4), 55° C.
# Method: 1) Description of Method for Determination of the Log P Values (Formic Acid Method)
# Eluents for determination in the acidic range (pH 3.4):
# Eluent A: acetonitrile+1 ml of formic acid/liter. Eluent B: water+0.9 ml of formic acid/liter.
# The lambda max values were determined in the maxima of the chromatographic signals using the UV spectra from 200 nm to 400 nm.
row,SMILES,chromatographic logP
1,"Nc1cnn(-c2ccc(C(F)(F)F)cn2)n1 [2-[5-(Trifluoromethyl)pyridin-2-yl]-2H-1,2,3-triazole-4-amine]",1.53
2,"O=C(Nc1ccn(-c2nc(F)c(F)cc2F)n1)c1ccccc1Br [Compound I-1-164, 2-Bromo-N-[1-(3,5,6-trifluoropyridin-2-yl)-1H-pyrazol-3-yl]benzamide]",2.68
3,"Nc1ccn(-c2nc(F)c(F)cc2F)n1 [1-(3,5,6-Trifluoropyridin-2-yl)-1H-pyrazole-3-amine]",1.15
4,Cc1ccc(-n2ccc(N)n2)c(Cl)c1 [1-(2-Chloro-4-methylphenyl)-1H-pyrazole-3-amine],1.85
5,"Nc1cc(F)c(-n2ccc(NC(=O)c3ccccc3C(=O)O)n2)c(F)c1 [Compound I-1-643, 2-{[1-(4-Amino-2,6-difluorophenyl)-1H-pyrazol-3-yl]carbamoyl}benzoic acid]",1.38

# Same assay, conditions: reversed-phase column (C 18), acidic range (pH 3.4), 55° C.
SMILES,log P,chromatographic logP
O=C(Nc1ccn(-c2c(F)cccc2F)n1)c1cscc1Br [Compound I-1-305],2.61,
O=C(Nc1cnn(-c2ncc(F)cc2F)n1)c1ccccc1I [Compound I-2-73],2.39,
Cc1snnc1C(=O)Nc1ccn(-c2c(F)cccc2F)n1 [Compound I-1-332],2.45,
N#Cc1c(F)cccc1-n1ccc(NC(=O)c2ccsc2I)n1 [Compound I-1-624],2.79,
O=C(Nc1ccn(-c2ncc(F)cc2F)n1)c1ccccc1CC(F)(F)F [Compound I-1-635],2.80,
Cc1cc(NC(=O)c2ccccc2I)nn1-c1ccc(F)cc1F [Compound I-1-214],3.73,
O=C(Nc1cnn(-c2ncccc2Cl)n1)c1cccnc1Cl [Compound I-2-56],1.66,
O=C(Nc1cnn(-c2ncccc2Br)n1)c1ccccc1C(F)(F)F [Compound I-2-17],2.46,
"CC(=O)NC1=NN(c2c(F)cccc2F)CC1 [N-[1-(2,6-Difluorophenyl)-4,5-dihydro-1H-pyrazol-3-yl]acetamide]",,1.46
O=C(Nc1cnn(-c2ccccc2Br)n1)c1cccnc1Cl [Compound I-2-9],2.29,
O=C(Nc1ccn(-c2ncc(F)cc2F)n1)c1ccccc1[N+](=O)[O-] [Compound I-1-147],2.00,
CCCn1ncc(I)c1C(=O)Nc1ccn(-c2ncc(F)cc2F)n1 [Compound I-1-541],2.93,
O=C(Nc1cnn(-c2ncccc2Br)n1)c1ccccc1I [Compound I-2-18],2.43,
O=C(Nc1ccn(-c2ncccc2F)n1)c1cccnc1Cl [Compound I-1-579],1.53,
O=C(Nc1ccn(-c2ccccc2Br)n1)c1cccnc1Cl [Compound I-1-57],2.37,
O=C(Nc1ccn(-c2cccc(Cl)c2F)n1)c1ccccc1Cl [Compound I-1-559],3.30,
O=C(Nc1ccn(-c2c(F)cccc2F)n1)C1=C(C(F)F)OCCS1 [Compound I-1-611],2.53,
O=C(Nc1ccn(-c2c(F)cccc2F)n1)c1cnccc1C(F)(F)F [Compound I-1-94],2.16,
O=C(Nc1ccn(-c2ccccc2Cl)n1)c1nccnc1Cl [Compound I-1-363],2.45,
Cn1ncc(Br)c1C(=O)Nc1ccn(-c2ncc(F)cc2F)n1 [Compound I-1-521],2.23,
Cc1oc(C)c(C(=O)Nc2ccn(-c3ncc(F)cc3F)n2)c1Br [Compound I-1-523],3.18,
Cn1nc(C(F)(F)F)c(C(=O)Nc2ccn(-c3c(F)cccc3F)n2)c1F [Compound I-1-112],2.53,
Cn1ncc(F)c1C(=O)Nc1ccn(-c2c(F)cccc2F)n1 [Compound I-1-321],2.27,

SMILES,log P,chromatographic logP
O=C(Nc1ccn(-c2ncc(F)cc2F)n1)c1cnccc1C(F)(F)F [Compound I-1-515],2.00,
CC1=C(C(=O)Nc2ccn(-c3ncc(F)cc3F)n2)CCCO1 [Compound I-1-548],2.10,
O=C(Nc1ccn(-c2ncc(F)cc2F)n1)c1ccccc1-n1cncn1 [Compound I-1-150],1.47,
O=C(Nc1nn(-c2ncc(F)cc2F)cc1[N+](=O)[O-])c1ccccc1C(F)(F)F [Compound I-1-475],2.63,
O=C(Nc1cnn(-c2ncc(F)cc2F)n1)c1cccnc1C(F)(F)F [Compound I-2-67],2.00,
O=C(Nc1ccn(-c2c(F)cccc2F)n1)c1ccccc1OC(F)(F)F [Compound I-1-79],2.96,
Cc1ccccc1C(=O)NC1=NN(c2c(F)cccc2F)CC1 [Compound I-4-5],2.21,
O=C(Nc1ccn(-c2ncc(F)cc2F)n1)c1ccncc1C(F)(F)F [Compound I-1-153],1.96,
O=C(Nc1ccn(-c2ncccc2Cl)n1)c1cccnc1Br [Compound I-1-565],1.68,
N#Cc1cc(F)ccc1-n1ccc(NC(=O)c2c(F)cccc2F)n1 [Compound I-1-628],2.39,
Cn1cc(C(=O)Nc2ccn(-c3ncc(F)cc3F)n2)c(C(F)(F)F)c1 [Compound I-1-156],2.31,
O=C(Nc1ccn(-c2ncc(F)cc2F)n1)C1=C(C(F)(F)F)OCCS1 [Compound I-1-155],2.35,
Cc1ccccc1C(=O)Nc1ccn(-c2c(F)cccc2F)n1 [Compound I-1-73],2.60,
CC1=C(C(=O)Nc2ccn(-c3ncc(F)cc3F)n2)SCCO1 [Compound I-1-498],2.17,
CCc1ccccc1C(=O)Nc1ccn(-c2ccccc2Cl)n1 [Compound I-1-12],3.30,
Cc1nn(C)c(C(=O)Nc2ccn(-c3c(F)cccc3F)n2)c1F [Compound I-1-320],2.20,
COc1ccccc1-n1ccc(NC(=O)c2ccccc2Cl)n1 [Compound I-1-410],2.70,
CCc1cc(NC(=O)c2ccccc2I)nn1-c1ccc(F)cc1F [Compound I-1-215],4.15,
Cc1cnoc1C(=O)Nc1ccn(-c2ncc(F)cc2F)n1 [Compound I-1-543],2.00,
O=C(Nc1ccn(-c2ncc(Cl)cc2Cl)n1)c1cccc(F)c1C(F)(F)F [Compound I-1-434],2.61,
Cn1nc(C(F)F)c(C(=O)Nc2ccn(-c3c(F)cccc3F)n2)c1F [Compound I-1-283],2.27,
O=C(Nc1ccn(-c2ncc(F)cc2F)n1)c1cscc1Br [Compound I-1-524],2.30,
Cc1nc(C(F)(F)F)c(C(=O)Nc2ccn(-c3c(F)cccc3F)n2)s1 [Compound I-1-114],2.58,

SMILES,log P,chromatographic logP
Cc1nn(C)c(C(=O)Nc2ccn(-c3ncc(F)cc3F)n2)c1C(F)F [Compound I-1-514],2.13,
O=C(Nc1nn(-c2ncccc2F)c2ccccc12)c1ccccc1Br [Compound I-5-4],2.67,
O=C(Nc1ccn(-c2c(F)cccc2F)n1)c1ncccc1Cl [Compound I-1-92],2.40,
Cc1ccc(C#N)c(-n2ccc(NC(=O)c3ccccc3C(F)(F)F)n2)n1 [Compound I-1-572],2.92,
O=C(Nc1nn(-c2ccccc2Cl)c2ccccc12)c1cccnc1C(F)(F)F [Compound I-5-9],3.11,
O=C(Nc1cnn(-c2ncc(F)cc2F)n1)c1c(F)cccc1C(F)(F)F [Compound I-2-71],2.51,
O=C(Nc1ccn(-c2c(F)cccc2F)n1)c1ccncc1C(F)(F)F [Compound I-1-97],2.16,
Cc1nnsc1C(=O)Nc1ccn(-c2ncc(F)cc2F)n1 [Compound I-1-160],1.91,
O=C(Nc1ccn(-c2cc(F)ccc2F)n1)c1occc1I [Compound I-1-222],3.14,
CS(=O)(=O)c1ccccc1-n1ccc(NC(=O)c2c(F)cccc2F)n1 [Compound I-1-181],1.86,
O=C(Nc1ccn(-c2c(F)cccc2F)n1)c1c(F)cccc1Br [Compound I-1-613],2.72,
O=C(Nc1ccn(-c2ncc(Cl)cc2F)n1)c1c(F)cccc1F [Compound I-1-588],2.60,
O=C(Nc1ccn(-c2ncc(Cl)cc2F)n1)c1ccccc1Cl [Compound I-1-590],2.74,
Cc1ccccc1C(=O)N(C(=O)c1cccnc1C)C1=NN(c2c(F)cccc2F)CC1 [Compound I-4-6],4.45,
Cc1ccsc1C(=O)Nc1ccn(-c2c(F)cccc2F)n1 [Compound I-1-103],2.64,
N#Cc1cn(-c2ccccc2Cl)nc1NC(=O)c1ccccc1C(F)(F)F [Compound I-1-346],2.53,
CCc1cccc(F)c1C(=O)Nc1ccn(-c2ncc(F)cc2F)n1 [Compound I-1-487],2.69,
Cc1c(F)cnc(F)c1-n1ccc(NC(=O)c2ccccc2C(F)(F)F)n1 [Compound I-1-217],3.06,
Cc1nn(-c2ccccc2Cl)nc1NC(=O)c1ccccc1I [Compound I-2-24],2.92,
O=C(Nc1ccn(-c2c(F)cccc2F)n1)c1cncnc1C(F)(F)F [Compound I-1-295],2.25,
N#Cc1c(F)cccc1-n1ccc(NC(=O)c2c(F)cccc2F)n1 [Compound I-1-619],2.45,
